Assay results reported in article PMC6647725 (Analytical and Bioanalytical Chemistry, 2019).

Assays:
[1] = Stability in mouse spleen homogenate and its final extract; format: in vitro ADME
Procedure: (§1) After weighing the complete organ, a volume of 3 mL of this solution was added to the liver and small intestine, 2 mL to the kidneys, and 1 mL to the brain and spleen. The tissue/BSA ratio (w/v) of the homogenates were approximately 0.4:1 for the brain and liver, 0.1:1 for the spleen, 0.2:1 for the kidneys, and 0.25:1 for the small intestine. All samples were shaken in the Fast Prep at 6.0 m/s during 60 s. The stability of each analyte was investigated in all the previously mentioned matrices. For plasma (both human and mouse), the stability was determined in triplicate at two concentration levels, QC L and QC H, whereas for mouse tissue homogenates only at QC M (except the brain in one stability condition). For all matrices, the following stability conditions were assessed: short term at room temperature (RT), long term at − 20 °C, and after 3 freeze-thaw (F/T) cycles at − 20 °C/RT. Furthermore, for tissue homogenates, the short-term stability in ice-water, long-term stability at − 70 °C, and F/T stability at − 70 °C/ice-water were also evaluated. Additionally, the stability in the final extract was tested. For this, the QC L and QC H final extracts from the plasma, brain, and spleen and the QC M final extract from the liver, kidney and small intestine were stored at 4–8 °C up to 3 days. Lastly, the stability of the stock solutions at − 20 °C was investigated.

[2] = Stability in mouse small intestine homogenate and its final extract; format: in vitro ADME; settings: nominal 50 ng/mL
Procedure: as §1

[3] = Plasma pharmacokinetics in mice after oral administration; format: in vivo, mouse (FVB)
Procedure: This method was developed to support pharmacokinetic and tissue distribution studies of the CDK4/6 inhibitors in mice (FVB background). These studies were done separately for each drug. Animal housing and studies were conducted according to institutional guidelines complying with Dutch and European Union legislation (approval number from The Dutch Central Animal Testing Committee: AVD301002016595). […] Approximately 50 μL of blood was collected from the tip of the tail at several time points, except at the last one, when 500–1000 μL of blood was collected by cardiac puncture under isoflurane anesthesia. […] Mice were sacrificed by cervical dislocation and the organs were collected and weighed. Plasma was obtained using sodium heparin as anticoagulant after centrifugation at 9000g, 4 °C, for 6 min. When necessary, 10 μL of mouse plasma was diluted with 40 μL of human plasma. The tissue homogenates were prepared according to the procedure described in the “Tissue homogenate preparation” section. Plasma and tissue homogenate samples were stored at − 20 and − 70 °C, respectively, until the LC-MS/MS analysis was performed.

[4] = Tissue distribution in mice after oral administration; format: in vivo, mouse (FVB); settings: female FVB mice, 20 mg/kg oral, 24 h
Procedure: After weighing the complete organ, a volume of 3 mL of this solution was added to the liver and small intestine, 2 mL to the kidneys, and 1 mL to the brain and spleen. The tissue/BSA ratio (w/v) of the homogenates were approximately 0.4:1 for the brain and liver, 0.1:1 for the spleen, 0.2:1 for the kidneys, and 0.25:1 for the small intestine. All samples were shaken in the Fast Prep at 6.0 m/s during 60 s. This method was developed to support pharmacokinetic and tissue distribution studies of the CDK4/6 inhibitors in mice (FVB background). These studies were done separately for each drug. Animal housing and studies were conducted according to institutional guidelines complying with Dutch and European Union legislation (approval number from The Dutch Central Animal Testing Committee: AVD301002016595). […] Approximately 50 μL of blood was collected from the tip of the tail at several time points, except at the last one, when 500–1000 μL of blood was collected by cardiac puncture under isoflurane anesthesia. […] Mice were sacrificed by cervical dislocation and the organs were collected and weighed. Plasma was obtained using sodium heparin as anticoagulant after centrifugation at 9000g, 4 °C, for 6 min. When necessary, 10 μL of mouse plasma was diluted with 40 μL of human plasma. […]

CDK6 = settings: cited from earlier work
[5] = final extract (listed under spleen homogenate), 4–8 °C, 3 d, nominal 5 ng/mL
[6] = spleen homogenate, 3 F/T (RT, − 20 °C), nominal 50 ng/mL
[7] = spleen homogenate, 3 F/T (− 70 °C, ice/water bath), nominal 50 ng/mL
[8] = spleen homogenate, LT − 20 °C, 1 m, nominal 50 ng/mL
[9] = spleen homogenate, LT − 70 °C, 1 m, nominal 50 ng/mL
[10] = spleen homogenate, RT, 3 h, nominal 50 ng/mL
[11] = spleen homogenate, RT, 1 d, nominal 50 ng/mL
[12] = spleen homogenate, ice/water bath, 3 h, nominal 50 ng/mL
[13] = final extract (listed under small intestine homogenate), 4–8 °C, 2 d
[14] = small intestine homogenate, 3 F/T (RT, − 20 °C)
[15] = small intestine homogenate, 3 F/T (− 70 °C, ice/water bath)
[16] = small intestine homogenate, LT − 20 °C, 1 m
[17] = small intestine homogenate, LT − 70 °C, 1 m
[18] = small intestine homogenate, RT, 3 h
[19] = small intestine homogenate, RT, 1 d
[20] = small intestine homogenate, ice/water bath, 3 h
[21] = final extract (listed under spleen homogenate), 4–8 °C, 3 d, nominal 150 ng/mL

Row | Accuracy (% Bias) [1, 5] [%] | Mean concentration [1, 5] [ng/mL] | Mean concentration [1, 6] [ng/mL] | Mean concentration [1, 7] [ng/mL] | Mean concentration [1, 8] [ng/mL] | Mean concentration [1, 9] [ng/mL] | Mean concentration [1, 10] [ng/mL] | Mean concentration [1, 11] [ng/mL] | Mean concentration [1, 12] [ng/mL] | Mean concentration [2, 13] [ng/mL] | Mean concentration [2, 14] [ng/mL] | Accuracy (% Bias) [2, 15] [%] | Mean concentration [2, 15] [ng/mL] | Mean concentration [2, 16] [ng/mL] | Mean concentration [2, 17] [ng/mL] | Accuracy (% Bias) [2, 18] [%] | Mean concentration [2, 18] [ng/mL] | Mean concentration [2, 19] [ng/mL] | Mean concentration [2, 20] [ng/mL] | SMILES | IC50 (CDK6) [nM] | other results
1 | 3.2 | […] | 42.9 | 49.9 | 40.5 | 45.0 | […] | 21.8 | 46.2 | […] | 45.6 | 0.1 | 50.0 | 38.9 | 48.9 | 1.3 | 50.6 | 41.9 | 48.4 | CN(C)C(=O)c1cc2cnc(Nc3ccc(N4CCNCC4)cn3)nc2n1C1CCCC1 [Ribociclib] | 39 | concentration at 8 h ([3]; female, FVB, po, mouse plasma, 20 mg/kg orally administered, t = 8 h, read-out: plasma concentration of representative sample): 625 ng/mL; Cmax ([3]; mouse, female FVB mice, 20 mg/kg oral, plasma, n = 6): 1040 ± 352 ng/mL; AUC(0-t) ([3]; mouse, female FVB mice, 20 mg/kg oral, plasma, n = 6, read-out: AUC0–24h): 6880 ± 1220 ng·h/mL; Tmax ([3]; mouse, female FVB mice, 20 mg/kg oral, plasma, n = 6, read-out: Tmax range): 30 to 60 min; concentration in the brain compared with other tissues [4]: […]; tissue distribution ([4]; spleen, kidney, liver, small intestine): highly distributed in the spleen and kidney, followed by the liver and small intestine
2 | 10.7 | […] | 48.7 | 56.1 | 48.6 | 51.8 | 51.7 | 46.5 | […] | […] | 49.0 | 1.5 | 50.7 | 48.2 | 48.3 | 12.3 | 56.4 | 46.4 | 51.6 | CCN1CCN(Cc2ccc(Nc3ncc(F)c(-c4cc(F)c5nc(C)n(C(C)C)c5c4)n3)nc2)CC1 [Abemaciclib] | […] | Accuracy (% Bias) [1, 21]: 4.2%; Mean concentration [1, 21]: […]; Accuracy (% Bias) [1, 7]: 12.1%; Accuracy (% Bias) [1, 9]: 3.5%; Accuracy (% Bias) [1, 10]: 3.4%; Accuracy (% Bias) [1, 12]: 4.9%; Accuracy (% Bias) [2, 13]: 4.7%; Accuracy (% Bias) [2, 20]: 3.1%; concentration at 24 h ([3]; FVB, po, mouse plasma, 10 mg/kg orally administered, t = 24 h, read-out: plasma concentration of representative sample): 74.3 ng/mL
